Consider seven compounds from patent US6790848B2, “4-piperazinylindole derivatives with 5-HT6 receptor affinity” (Syntex (U.S.A.) LLC, priority 2001, dated 2004).

Counter-ions that a name gives are not always drawn.

Take `O=S(=O)(c1ccc(Cl)cc1)n1ccc2c(N3CCNCC3)cccc21` (as salt: trifluoroacetate) [1-(4-chloro-benzenesulfonyl)-4-piperazin-1-yl-1H-indole]: the melting point (commonly the temperature, or range, at which the solid turns liquid) was in the range of 193 to 194 °C.
For the compound `CS(=O)(=O)c1ccc(S(=O)(=O)n2ccc3c(N4CCNCC4)cccc32)cc1` (as salt: trifluoroacetate) [1-(4-methanesulfonyl-benzenesulfonyl)-4-piperazin-1-yl-1H-indole], the melting point was 234 to 235 °C (dec.).
`CC(C)(C)c1ccc(S(=O)(=O)n2ccc3c(N4CCNCC4)cccc32)cc1` (as salt: trifluoroacetate) [1-(4-ter-butyl-benzenesulfonyl)-4-piperazin-1-yl-1H-indole]: the melting point was 231 to 232 °C (dec.).
Compound `CC(C)CS(=O)(=O)c1cccc(S(=O)(=O)n2ccc3c(N4CCNCC4)cccc32)c1` (as salt: trifluoroacetate) [1-[3-(2-methyl-propane-1-sulfonyl)-benzenesulfonyl]-4-piperazin-1-yl-1H-indole] returned a melting point of 220 to 222 °C.
To `N#Cc1cccc(S(=O)(=O)n2ccc3c(N4CCNCC4)cccc32)c1` (as salt: trifluoroacetate) [3-(4-piperazin-1-yl-indole-1-sulfonyl)-benzonitrile] belongs 238 °C (dec.); to `O=S(=O)(c1cccs1)n1ccc2c(N3CCNCC3)cccc21` (as salt: trifluoroacetate) [4-piperazin-1-yl-1-(thiophene-2-sulfonyl)-1H-indole], 208 to 209 °C; to `CCCS(=O)(=O)c1cccc(S(=O)(=O)n2ccc3c(N4CCNCC4)cccc32)c1` (as salt: trifluoroacetate) [4-piperazin-1-yl-1-[3-(propane-1-sulfonyl)-benzenesulfonyl]-1H-indole], 173 to 174 °C.
